Experimental data taken from patent US7776855B2, “Antimicrobial oxazolidinone prodrugs” (Janssen Pharmaceutica N.V., priority 2006, dated 2010).
Values after ≈ are worked out from the molar mass of the structure shown. Where two headings read alike, the source gives them in different places.

Key:
[1] = Prodrug Solubility (visual inspection in buffer); type: physicochemical; conditions: aqueous buffer, thermodynamic from solid
Protocol: One mg of each compound was diluted with at least 100 μl of the designated buffer, vortexed vigorously for approximately 1 minute, and visually inspected. Sodium citrate (40 mM) was buffered to pH 4 and phosphate-buffered saline was buffered to pH 7. Solutions with no remaining particles were recorded with a solubility ≧to the starting concentration. Compound suspensions were further diluted in 0.1 mL increments followed by vortexing as above, until the prodrug was dissolved. Solubilities of prodrugs ranged from 1.0 mg/ml to >10 mg/ml. The term “ND” means not determined.

[2] = Pharmacokinetics of Prodrugs in Animal Models, all species tested (summary); type: in vivo, mice, rats, or dogs; conditions: for PK parameters, normalized to the dose, compared with the respective parameters for Compound 1: all species tested (Table 3a-3d); for conversion of the prodrug form in vivo: all species tested, inferred from PK parameters
Protocol: Animals were weighed and given the prodrug intravenously (mice, rats, or dogs) or orally (mice). The prodrugs were prepared immediately before dosing in 40 mM sodium citrate buffer, pH 4. Compound 1 was prepared in 20% HPβCD and warmed until dissolved (IV dosing), or in 0.5% methocel as a suspension (PO dosing). At 0, 0.08, 0.25, 0.5, 1, 2, 4, 6, 8, and 24 hours, blood was removed (via cardiac puncture in euthanized mice, via orbital sinus puncture in anesthetized rats, or via cephalic vein in conscious dogs) and 200 µL of the plasma supernatant was immediately frozen (−70° C.).
On the day of analysis, the samples were thawed on ice and 100 μL was diluted with 200 μL of acetonitrile. The samples were vortexed and then centrifuged at 3000×g for 5 minutes to pellet the precipitated plasma proteins. The supernatant was analyzed by HPLC, or by LC-MS-MS. A standard curve was constructed by spiking a known quantity of Compound 1 into plasma and then performing serial dilutions in the range of 0.01 to 10 μg/mL. Pharmacokinetic (PK) parameters were calculated by WinNonlin Pro, version 3.1.
The term “ND” means not determined. The term “NA” means not applicable. The dose of each prodrug was normalized to the Compound 1 dose. The values of the PK parameters for the prodrug form for Compounds 4a and 21a are based on the resulting accumulation and elimination of Compound 1.

[3] = Solubility of Compound 1 in pH 4 buffer (24 h shaking, HPLC); type: physicochemical; conditions: aqueous buffer, thermodynamic from solid, ambient temperature
Protocol: The solubility of the active drug, Compound 1, was determined in a separate experiment in which an excess of the compound was added to pH 4 buffer. The mixture was shaken with a Burrell wrist action shaker at ambient temperature for 24 hours. Excess solute was removed by centrifugation, the supernatant was diluted with a suitable solvent, and the concentration of the compound was measured using HPLC. The solubility of Compound 1 at pH 4 was 0.007 mg/mL.

S. aureus Smith = experiment: Mouse Systemic Lethal Infection Model; type: in vivo; conditions: Staphylococcus aureus, female Swiss Webster mice, infected intraperitoneally, three day survival, prodrug ED50 normalized to content of Compound 1
Protocol: Female Swiss Webster mice weighing between 20-25 g were infected intraperitoneally with approximately 5×10^5 colony forming units (CFU) S. aureus Smith in 7% mucin. One hour later, the animals were given prodrug or Compound 1 intravenously or orally in a dose volume of 0.1 mL/10 g body weight. Each group consisted of eight animals. The prodrugs were prepared immediately before dosing in 40 mM sodium citrate buffer, pH 4. Compound 1 was prepared in 20% HPβCD and warmed until dissolved (IV dosing) or in 0.5% methocel (PO dosing) as a suspension. The mice were observed over a three day period and ED50 values were calculated from the resulting % survival curves (Table 2). The term “ND” means not determined. The prodrug ED50 values were normalized to the content of Compound 1.

[4] = phosphate-buffered saline pH 7, read-out: Solubility Saline
[5] = 40 mM sodium citrate buffer, Sodium citrate (40 mM) pH 4, read-out: Solubility Sodium Citrate

## CCOP(=O)(O)OCOC(=O)N(C[C@H]1CN(c2ccc(N3Cc4cn(C)nc4C3)c(F)c2)C(=O)O1)C(C)=O [Compound 21a, Acetyl-{(R)-3-[3-fluoro-4-(2-methyl-2,6-dihydro-4H-pyrrolo[3,4-c]pyrazol-5-yl)-phenyl]-2-oxo-oxazolidin-5-ylmethyl}-carbamic acid ethoxy-hydroxy-phosphoryloxymethyl ester]
[1]; Sodium citrate (40 mM) pH 4, read-out: Solubility Sodium Citrate
  solubility at 1 min: ≥ 10000 µg/mL
[1]; [4]
  solubility at 1 min: ≥ 10000 µg/mL
[2]
  PK parameters, normalized to the dose, compared with the respective parameters for Compound 1: similar
  conversion of the prodrug form in vivo: rapidly converted in vivo to Compound 1

## CNCC(=O)OCOC(=O)N(C[C@H]1CN(c2ccc(N3Cc4cn(C)nc4C3)c(F)c2)C(=O)O1)C(C)=O [Compound 10, Methylamino-acetic acid (acetyl-{(R)-3-[3-fluoro-4-(2-methyl-2,6-dihydro-4H-pyrrolo[3,4-c]pyrazol-5-yl)-phenyl]-2-oxo-oxazolidin-5-ylmethyl}-carbamoyloxy)-methyl ester]
[1]; [5]
  solubility at 1 min: ≥ 10000 µg/mL
[1]; [4]
  solubility at 1 min: ≥ 10000 µg/mL

## CC(=O)N(C[C@H]1CN(c2ccc(N3Cc4cn(C)nc4C3)c(F)c2)C(=O)O1)C(=O)OCOC(=O)CN1CCNCC1 [Compound 4a, Piperazin-1-yl-acetic acid (acetyl-{(R)-3-[3-fluoro-4-(2-methyl-2,6-dihydro-4H-pyrrolo[3,4-c]pyrazol-5-yl)-phenyl]-2-oxo-oxazolidin-5-ylmethyl}-carbamoyloxy)-methyl ester]
[1]; [5]
  solubility at 1 min: ≥ 10000 µg/mL
[1]; [4]
  solubility at 1 min: ≥ 10000 µg/mL
[2]
  PK parameters, normalized to the dose, compared with the respective parameters for Compound 1: similar
  conversion of the prodrug form in vivo: rapidly converted in vivo to Compound 1

## CC(=O)NC[C@H]1CN(c2ccc(N3Cc4cn(C)nc4C3)c(F)c2)C(=O)O1 [Compound 1]
[3]
  solubility at 24 h: 7 µg/mL (≈ 0.0187 mM)
S. aureus Smith; dosed intravenously one hour later, read-out: ED50 (95% Fiducial Limits) IV
  ED50: 3.3 mg/kg
S. aureus Smith; dosed orally one hour later, read-out: ED50 (95% Fiducial Limits) PO
  ED50: 3.5 mg/kg

## CC(=O)N(C[C@H]1CN(c2ccc(N3Cc4cn(C)nc4C3)c(F)c2)C(=O)O1)C(=O)OCOC(=O)CN1CCN(C)CC1 [Compound 8, (4-Methyl-piperazin-1-yl)-acetic acid (acetyl-{(R)-3-[3-fluoro-4-(2-methyl-2,6-dihydro-4H-pyrrolo[3,4-c]pyrazol-5-yl)-phenyl]-2-oxo-oxazolidin-5-ylmethyl}-carbamoyloxy)-methyl ester]
[1]; [5]
  solubility at 1 min: ≥ 10000 µg/mL
[1]; [4]
  solubility at 1 min: ≥ 10000 µg/mL

## CC(=O)N(C[C@H]1CN(c2ccc(N3Cc4cn(C)nc4C3)c(F)c2)C(=O)O1)C(=O)OCOC(=O)COP(=O)(O)O [Compound 24, Phosphonooxy-acetic acid (acetyl-{(R)-3-[3-fluoro-4-(2-methyl-2,6-dihydro-4H-pyrrolo[3,4-c]pyrazol-5-yl)-phenyl]-2-oxo-oxazolidin-5-ylmethyl}-carbamoyloxy)-methyl ester]
[1]; [5]
  solubility at 1 min: ≥ 5000 µg/mL

## CC(=O)N(C[C@H]1CN(c2ccc(N3Cc4cn(C)nc4C3)c(F)c2)C(=O)O1)C(=O)OC(C)OC(=O)CN1CCNCC1 (stereo partly drawn) [Compound 4b, Piperazin-1-yl-acetic acid 1-(acetyl-{(R)-3-[3-fluoro-4-(2-methyl-2,6-dihydro-4H-pyrrolo[3,4-c]pyrazol-5-yl)-phenyl]-2-oxo-oxazolidin-5-ylmethyl}-carbamoyloxy)-ethyl ester]
[1]; [5]
  solubility at 1 min: ≥ 7500 µg/mL

## CC(=O)N(C[C@H]1CN(c2ccc(N3Cc4cn(C)nc4C3)c(F)c2)C(=O)O1)C(=O)OCOC(=O)CN(C)C [Compound 5, Dimethylamino-acetic acid (acetyl-{(R)-3-[3-fluoro-4-(2-methyl-2,6-dihydro-4H-pyrrolo[3,4-c]pyrazol-5-yl)-phenyl]-2-oxo-oxazolidin-5-ylmethyl}-carbamoyloxy)-methyl ester]
[1]; [5]
  solubility at 1 min: ≥ 10000 µg/mL
[1]; [4]
  solubility at 1 min: ≥ 10000 µg/mL

## CC(=O)N(C[C@H]1CN(c2ccc(N3Cc4cn(C)nc4C3)c(F)c2)C(=O)O1)C(=O)OCOC(=O)CN1CCOCC1 [Compound 6, Morpholin-4-yl-acetic acid (acetyl-{(R)-3-[3-fluoro-4-(2-methyl-2,6-dihydro-4H-pyrrolo[3,4-c]pyrazol-5-yl)-phenyl]-2-oxo-oxazolidin-5-ylmethyl}-carbamoyloxy)-methyl ester]
[1]; [5]
  solubility at 1 min: 2500 µg/mL (≈ 4.35 mM)
[1]; [4]
  solubility at 1 min: 1000 µg/mL (≈ 1.74 mM)

## CC(=O)N(C[C@H]1CN(c2ccc(N3Cc4cn(C)nc4C3)c(F)c2)C(=O)O1)C(=O)OCOP(=O)(O)O [Compound 18a, Acetyl-{(R)-3-[3-fluoro-4-(2-methyl-2,6-dihydro-4H-pyrrolo[3,4-c]pyrazol-5-yl)-phenyl]-2-oxo-oxazolidin-5-ylmethyl}-carbamic acid phosphonooxymethyl ester]
[1]; [5]
  solubility at 1 min: ≥ 2000 µg/mL
[1]; [4]
  solubility at 1 min: ≥ 2000 µg/mL
